Measured values as given in PMC9173640, “PI Kinase-EhGEF2-EhRho5 axis contributes to LPA stimulated macropinocytosis in Entamoeba histolytica” (PLoS Pathogens, 2022).

Target: T1, EhRho5 (His-EhRho5; EhRacD) (Entamoeba histolytica, UniProt Q24817)
T1 construct: gene RACD; His-tagged (pET28a+), expressed in E. coli BL21(DE3), PCR-amplified full-length gene
Assay: nucleotide loading, GST-RBD pulldown
Conditions: loaded with 10 mM EDTA; indirect read-out by Rhotekin RBD binding

T1 sequence (C4LV55 entry or part of it): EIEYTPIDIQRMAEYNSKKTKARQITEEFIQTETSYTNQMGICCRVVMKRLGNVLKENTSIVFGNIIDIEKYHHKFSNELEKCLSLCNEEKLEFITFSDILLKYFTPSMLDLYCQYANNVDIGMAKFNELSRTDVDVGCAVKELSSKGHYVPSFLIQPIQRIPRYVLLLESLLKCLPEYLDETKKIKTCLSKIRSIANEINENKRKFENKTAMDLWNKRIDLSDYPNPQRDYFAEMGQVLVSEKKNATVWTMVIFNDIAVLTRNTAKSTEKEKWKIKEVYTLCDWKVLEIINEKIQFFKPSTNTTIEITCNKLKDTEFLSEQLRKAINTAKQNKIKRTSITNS
T1 sequence (Q24817 whole entry): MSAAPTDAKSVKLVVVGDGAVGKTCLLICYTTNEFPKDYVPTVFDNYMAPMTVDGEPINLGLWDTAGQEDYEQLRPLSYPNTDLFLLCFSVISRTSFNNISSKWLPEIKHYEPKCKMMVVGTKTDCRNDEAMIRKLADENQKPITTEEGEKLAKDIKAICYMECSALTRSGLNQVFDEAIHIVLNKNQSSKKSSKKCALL

| SMILES | nucleotide loading, GST-RBD pulldown |
| --- | --- |
| Nc1nc2c(ncn2[C@@H]2O[C@H](COP(=O)(O)OP(=O)(O)O)[C@@H](O)[C@H]2O)c(=O)[nH]1 [GDP] | GDP bound inactive EhRho5 from the GMPPNP (GTP analog) bound EhRho5 |
| Nc1nc2c(ncn2[C@@H]2O[C@H](COP(=O)(O)OP(=O)(O)NP(=O)(O)O)[C@@H](O)[C@H]2O)c(=O)[nH]1 [GMPPNP] | nucleotide bound to His-EhRho5 was exchanged with excess of GMPPNP, a nonhydrolyzable GTP analogue |
